Target: T1, Muscarinic acetylcholine receptor M2 (Homo sapiens, UniProt P08172)
T1 sequence (P08172 whole entry): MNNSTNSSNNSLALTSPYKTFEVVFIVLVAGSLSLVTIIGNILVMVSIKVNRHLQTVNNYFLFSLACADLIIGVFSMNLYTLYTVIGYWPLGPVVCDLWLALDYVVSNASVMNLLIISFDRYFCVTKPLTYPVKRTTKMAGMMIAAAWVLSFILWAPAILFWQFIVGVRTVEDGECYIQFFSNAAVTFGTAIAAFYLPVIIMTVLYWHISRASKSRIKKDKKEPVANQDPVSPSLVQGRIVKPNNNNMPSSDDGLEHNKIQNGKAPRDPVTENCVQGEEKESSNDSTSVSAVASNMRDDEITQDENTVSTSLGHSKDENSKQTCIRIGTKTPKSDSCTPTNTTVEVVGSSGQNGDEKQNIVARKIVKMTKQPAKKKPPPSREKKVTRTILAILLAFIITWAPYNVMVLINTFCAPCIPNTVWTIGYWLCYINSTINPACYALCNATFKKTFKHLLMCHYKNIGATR
Experiment: Agonist activity at human M2 receptor
Format: functional

SMILES | EC50
COC(=O)N1CCC(N2CCC(n3c(=O)n(C)c4ccccc43)CC2)CC1 | 135 nM

Target: T2, Muscarinic acetylcholine receptor M4 (Homo sapiens, UniProt P08173)
T2 sequence (P08173 whole entry): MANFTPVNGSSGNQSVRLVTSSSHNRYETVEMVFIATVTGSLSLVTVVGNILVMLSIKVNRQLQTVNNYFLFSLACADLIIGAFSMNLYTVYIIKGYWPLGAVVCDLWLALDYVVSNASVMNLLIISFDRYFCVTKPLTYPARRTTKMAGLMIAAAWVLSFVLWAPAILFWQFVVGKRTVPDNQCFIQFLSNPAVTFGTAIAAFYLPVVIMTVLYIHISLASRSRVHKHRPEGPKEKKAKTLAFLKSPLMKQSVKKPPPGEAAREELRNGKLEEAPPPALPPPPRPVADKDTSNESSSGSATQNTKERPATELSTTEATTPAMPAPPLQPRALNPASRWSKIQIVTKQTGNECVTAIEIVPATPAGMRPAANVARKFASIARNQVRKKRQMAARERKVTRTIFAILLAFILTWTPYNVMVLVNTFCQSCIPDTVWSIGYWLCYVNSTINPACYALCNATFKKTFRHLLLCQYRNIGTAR
Experiment: Agonist activity at human M4 receptor
Format: functional

EC50 | SMILES
39 nM | COc1nc2sc(C(=O)NC3CC3)c(N)c2c(C)c1Cl
200 nM | CCNC(=O)c1sc2nc(OC)c(Cl)c(C)c2c1N

Target: T2, Muscarinic acetylcholine receptor M4
Experiment: Agonist activity at human recombinant M4 muscarinic acetylcholine receptor assessed as calcium mobilization by FLIPR analysis
Format: functional

EC50 | SMILES
1.3 nM | Cc1cc(C)c2c(N)c(C(=O)NCc3ccccc3)sc2n1
395 nM | Cc1cc(C)c2c(N)c(C(=O)NCc3ccco3)sc2n1
400 nM | Cc1cc(C)c2c(N)c(C(=O)NCc3ccc(Cl)cc3)sc2n1
77 nM | Cc1nc2sc(C(=O)NCc3ccncc3)c(N)c2c(C)c1Cl
403 nM | Cc1cc(C)c2c(N)c(C(=O)NCc3ccc4c(c3)OCO4)sc2n1
91 nM | Cc1nnc2sc(C(=O)NCc3ccc(-c4ccnc(F)c4)cc3)c(N)c2c1C
